From patent US5980913A, “Peptides having immunomodulatory activity” (Biochem Pharma, Inc., priority 1994, dated 1999)
Where a SMILES comes first, the peptide text is derived from it.

Key:
[1] = tested on: C57BL/6 lymphocytes with irradiated DBA/2 cells; test: Mixed lymphocyte reaction (MLR), 3H thymidine uptake; assay type: cell-based, mice; conditions: concentration not given; 0 not defined
Description: 1. Cytotoxic T Lymphocytes (CTL) Mixed Lymphocyte Reaction (MLR) and Mitogenic Response Assays
The protocols used are described in Hudson L., Haay F., Pratical immunology, 3rd edition, Blackwell, Scientific publications, Oxford 1989, p. 158-162, and p.447.
Lymphocytes were isolated from C57BL/6 mice and DBA/2 mice in accordance to techniques well known in the art. Cell concentration was adjusted to 10×10^6 cell/ml for each assay. The cells isolated from DBA/2 mice were irradiated with 3000 Rads.
In a 6 well plate, each well was set up with:
The cells were incubated for five days at 37° C. in 5% CO2, after which CTL and MLR assays were performed.
b) Mixed Lymphocyte Reaction (MLR)
Mixed lymphocyte reaction is an in vitro counterpart of the allograft rejection. Briefly, lymphocyte activation (mitotic response) is obtained when cells from two inbred strains or from two outbred individuals of any species are mixed in in vitro culture. To have a unidirectional response, the proliferation of either cell type may be blocked with X-ray irradiation or mitomycin C treatment. After 4 days incubation, ^3 H thymidine uptake and cytotoxicity assays (CTL) were performed. The cells were then resuspended and 100 μl of cell suspension was deposited in each well of a 96 well plate. 1 μCi of tritiated thymidine was added for 6 hours. After incubation, the cells were then harvested and counted using a Microbeta counter.

[2] = tested on: blood cell subsets (cell surface antigens); test: In vivo/ex vivo immunophenotyping in the blood, mice treated 4 consecutive days, blood taken on day 5; parameters: species or system C57BL/6 mice
Description: C57BL.backslash.6 mice are treated with 0, 50, 100, 200, and 300 mg/kg of drug (in saline) for 4 consecutive days. Blood is taken by cardiac puncture on day 5, and the lymphocytes are isolated from spleen in the following manner:
1. Immunophenotyping (blood and spleen)
Cell immunophenotyping is performed on blood and spleen. The following cell surface antigens are analyzed:
CD4 (T helper/inducer, binds class II-restricted T cells);
CD8 (cytotoxic T cells, CTL adhesion);
MAC-1 (monocyte/macrophage);
NK (natural killer cells);
CD45 (all leukocytes, protein tyrosine phosphatase).

Toxicity in vivo = conditions: animals treated with 50, 100, 200, and 300 mg/kg
Description: peptide #1 (SEQ. ID NO:1) appears to be non-toxic.

[3] = Stability in Human Whole Blood at 37° C., HPLC; assay type: in vitro ADME; parameters: half-life: dose or concentration left out as unconfirmed; conditions: for HPLC AREA: human whole blood 37° C.
Description: The procedures are the same as example 5 with the exceptions that human whole blood was substituted for rat whole blood, and that in Step 2, (blood incubation) aliquotes were taken at the following times: […]

- HPLC AREA ([3]; 0 min): 887657
- HPLC AREA ([3]; 15 min): 354842
- HPLC AREA ([3]; 30 min): 127725
- HPLC AREA ([3]; 45 min): 0
- half-life ([3]; human, human whole blood, 37° C.): ~20 min
Compound: NCCCC[C@H](N)C(=O)N[C@@H](CC(N)=O)C(=O)N1CCC[C@H]1C(=O)N[C@@H](Cc1ccc(O)cc1)C(=O)O [PEPTIDE #1, H-Lys-Asn-Pro-Tyr-OH] (H-KNPY-OH)
- MLR [1]: 0
- B cell subset, relative percentage ([2]; 50 mg/kg): 23.57
- CD4+ CD8+ cell subset, relative percentage ([2]; 50 mg/kg): 3.65
- CD4+ CD8- cell subset, relative percentage ([2]; 50 mg/kg): 27.15
- CD4+ CD11+ cell subset, relative percentage ([2]; 50 mg/kg): 0.53
- CD4+ CD11- cell subset, relative percentage ([2]; 50 mg/kg): 34.10
- CD4+ CD45+ cell subset, relative percentage ([2]; 50 mg/kg): 26.95
- CD4+ CD45- cell subset, relative percentage ([2]; 50 mg/kg): 3.80
- CD4- CD8+ cell subset, relative percentage ([2]; 50 mg/kg): 11.20
- CD4- CD8- cell subset, relative percentage ([2]; 50 mg/kg): 58.05
- CD4- CD11+ cell subset, relative percentage ([2]; 50 mg/kg): 7.67
- CD4- CD11- cell subset, relative percentage ([2]; 50 mg/kg): 57/73
- CD4- CD45+ cell subset, relative percentage ([2]; 50 mg/kg): 65.30
- CD4- CD45- cell subset, relative percentage ([2]; 50 mg/kg): 3.90
- CD8+ CD45+ cell subset, relative percentage ([2]; 50 mg/kg): 13.70
- CD8+ CD45- cell subset, relative percentage ([2]; 50 mg/kg): 0.55
- CD8- CD45+ cell subset, relative percentage ([2]; 50 mg/kg): 76.15
- CD8- CD45- cell subset, relative percentage ([2]; 50 mg/kg): 9.60
- NK+ CD3+ cell subset, relative percentage ([2]; 50 mg/kg): 7.83
- NK+ CD3- cell subset, relative percentage ([2]; 50 mg/kg): 10.47
- NK- CD3+ cell subset, relative percentage ([2]; 50 mg/kg): 41.23
- NK- CD3- cell subset, relative percentage ([2]; 50 mg/kg): 40.53
- Non B cell subset, relative percentage ([2]; 50 mg/kg): 76.40
- B cell subset, relative percentage ([2]; 100 mg/kg): 19.23
- CD4+ CD8+ cell subset, relative percentage ([2]; 100 mg/kg): 27.20
- CD4+ CD8- cell subset, relative percentage ([2]; 100 mg/kg): 28.55
- CD4+ CD11+ cell subset, relative percentage ([2]; 100 mg/kg): 0.23
- CD4+ CD11- cell subset, relative percentage ([2]; 100 mg/kg): 41.67
- CD4+ CD45+ cell subset, relative percentage ([2]; 100 mg/kg): 46.75
- CD4+ CD45- cell subset, relative percentage ([2]; 100 mg/kg): 8.90
- CD4- CD8+ cell subset, relative percentage ([2]; 100 mg/kg): 11.50
- CD4- CD8- cell subset, relative percentage ([2]; 100 mg/kg): 32.85
- CD4- CD11+ cell subset, relative percentage ([2]; 100 mg/kg): 3.00
- CD4- CD11- cell subset, relative percentage ([2]; 100 mg/kg): 55.13
- CD4- CD45+ cell subset, relative percentage ([2]; 100 mg/kg): 37.30
- CD4- CD45- cell subset, relative percentage ([2]; 100 mg/kg): 7.00
- CD8+ CD45+ cell subset, relative percentage ([2]; 100 mg/kg): 31.95
- CD8+ CD45- cell subset, relative percentage ([2]; 100 mg/kg): 6.20
- CD8- CD45+ cell subset, relative percentage ([2]; 100 mg/kg): 47.55
- CD8- CD45- cell subset, relative percentage ([2]; 100 mg/kg): 14.35
- NK+ CD3+ cell subset, relative percentage ([2]; 100 mg/kg): 2.80
- NK+ CD3- cell subset, relative percentage ([2]; 100 mg/kg): 6.50
- NK- CD3+ cell subset, relative percentage ([2]; 100 mg/kg): 37.57
- NK- CD3- cell subset, relative percentage ([2]; 100 mg/kg): 53.13
- Non B cell subset, relative percentage ([2]; 100 mg/kg): 80.77
- B cell subset, relative percentage ([2]; 200 mg/kg): 20.10
- CD4+ CD8+ cell subset, relative percentage ([2]; 200 mg/kg): 16.11
- CD4+ CD8- cell subset, relative percentage ([2]; 200 mg/kg): 24.11
- CD4+ CD11+ cell subset, relative percentage ([2]; 200 mg/kg): 0.50
- CD4+ CD11- cell subset, relative percentage ([2]; 200 mg/kg): 39.73
- CD4+ CD45+ cell subset, relative percentage ([2]; 200 mg/kg): 33.01
- CD4+ CD45- cell subset, relative percentage ([2]; 200 mg/kg): 6.22
- CD4- CD8+ cell subset, relative percentage ([2]; 200 mg/kg): 8.57
- CD4- CD8- cell subset, relative percentage ([2]; 200 mg/kg): 37.41
- CD4- CD11+ cell subset, relative percentage ([2]; 200 mg/kg): 5.50
- CD4- CD11- cell subset, relative percentage ([2]; 200 mg/kg): 54.30
- CD4- CD45+ cell subset, relative percentage ([2]; 200 mg/kg): 40.63
- CD4- CD45- cell subset, relative percentage ([2]; 200 mg/kg): 6.74
- CD8+ CD45+ cell subset, relative percentage ([2]; 200 mg/kg): 20.68
- CD8+ CD45- cell subset, relative percentage ([2]; 200 mg/kg): 4.13
- CD8- CD45+ cell subset, relative percentage ([2]; 200 mg/kg): 49.80
- CD8- CD45- cell subset, relative percentage ([2]; 200 mg/kg): 10.39
- NK+ CD3+ cell subset, relative percentage ([2]; 200 mg/kg): 4.57
- NK+ CD3- cell subset, relative percentage ([2]; 200 mg/kg): 8.70
- NK- CD3+ cell subset, relative percentage ([2]; 200 mg/kg): 31.73
- NK- CD3- cell subset, relative percentage ([2]; 200 mg/kg): 55.07
- Non B cell subset, relative percentage ([2]; 200 mg/kg): 79.90
- B cell subset, relative percentage ([2]; 300 mg/kg): 33.67
- CD4+ CD8+ cell subset, relative percentage ([2]; 300 mg/kg): 2.37
- CD4+ CD8- cell subset, relative percentage ([2]; 300 mg/kg): 31.07
- CD4+ CD11+ cell subset, relative percentage ([2]; 300 mg/kg): 0.37
- CD4+ CD11- cell subset, relative percentage ([2]; 300 mg/kg): 29.53
- CD4+ CD45+ cell subset, relative percentage ([2]; 300 mg/kg): 30.67
- CD4+ CD45- cell subset, relative percentage ([2]; 300 mg/kg): 2.77
- CD4- CD8+ cell subset, relative percentage ([2]; 300 mg/kg): 16.67
- CD4- CD8- cell subset, relative percentage ([2]; 300 mg/kg): 49.90
- CD4- CD11+ cell subset, relative percentage ([2]; 300 mg/kg): 5.07
- CD4- CD11- cell subset, relative percentage ([2]; 300 mg/kg): 65.03
- CD4- CD45+ cell subset, relative percentage ([2]; 300 mg/kg): 62.10
- CD4- CD45- cell subset, relative percentage ([2]; 300 mg/kg): 4.47
- CD8+ CD45+ cell subset, relative percentage ([2]; 300 mg/kg): 18.10
- CD8- CD45+ cell subset, relative percentage ([2]; 300 mg/kg): 73.03
- CD8- CD45- cell subset, relative percentage ([2]; 300 mg/kg): 8.83
- NK+ CD3+ cell subset, relative percentage ([2]; 300 mg/kg): 9.97
- NK+ CD3- cell subset, relative percentage ([2]; 300 mg/kg): 11.87
- NK- CD3+ cell subset, relative percentage ([2]; 300 mg/kg): 42.43
- NK- CD3- cell subset, relative percentage ([2]; 300 mg/kg): 35.77
- Non B cell subset, relative percentage ([2]; 300 mg/kg): 66.30
- change of the relative percentage of B cell (in words) ([2]; 300 mg/kg): significant increase
- toxicity in vivo (in words) (Toxicity in vivo): No apparent toxicity
